The values below come from patent US8937048B2, “Anti-angiogenic compounds” (Covx Technologies Ireland, Limited, priority 2008, dated 2015).

pIC50: −log10 of the molar value. Where a SMILES comes first, the peptide text is derived from it. Bridges are numbered along the chain shown (N, C = ends).

The target in the test is T1, recombinant human VEGF165 (Homo sapiens, UniProt P15692).
T1 sequence (P15692 27-191 isoform P15692-4): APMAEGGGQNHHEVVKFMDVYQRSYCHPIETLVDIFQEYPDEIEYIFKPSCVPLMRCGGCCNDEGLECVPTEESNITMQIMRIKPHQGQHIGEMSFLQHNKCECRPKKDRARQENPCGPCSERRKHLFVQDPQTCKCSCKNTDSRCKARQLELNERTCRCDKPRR
The test is described as follows: VEGF peptide binding assay (competition ELISA, VEGF165 binding to coated VEGFR2/Fc). The gist of the method: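 VEGFR2/Fc was coated, and peptides (0.128–10,000 nM, N-acetyl, C-amide) were preincubated with 25 ng/ml human VEGF165 and added for 1 h at RT. Bound VEGF was detected with biotinylated anti-VEGF, streptavidin-HRP and TMB at OD450. IC50 came from sigmoid dose-response fits of OD450 versus concentration.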
As for `CC[C@H](C)[C@@H]1NC(=O)[C@H](CC(=O)O)NC(=O)[C@@H](NC(=O)[C@H](CC(N)=O)NC(=O)[C@@H]2CCCN2C(=O)[C@H](CCC(=O)O)NC(=O)[C@@H](NC(C)=O)C(C)C)CSSC[C@@H](C(=O)N[C@@H](Cc2ccccc2)C(=O)N[C@@H](CCC(=O)O)C(=O)N[C@@H](CCCNC(=N)N)C(=O)N[C@@H](CC(C)C)C(=O)N[C@@H](CCSC)C(=O)N[C@@H](CCCCN)C(=O)N[C@@H](CCC(=O)O)C(=O)N[C@@H](CC(C)C)C(N)=O)NC(=O)[C@H](CCC(=O)O)NC(=O)[C@H](Cc2c[nH]c3ccccc23)NC(=O)[C@H](C(C)C)NC(=O)[C@H](Cc2c[nH]c3ccccc23)NC(=O)[C@H](CCSC)NC(=O)[C@H](C(C)C)NC(=O)[C@H](Cc2c[nH]cn2)NC1=O` [Compound 65, VEPNCDIHVMWVWECFERLMKEL] (Ac-VEPNCDIHVMWVWECFERLMKEL-NH2; disulfide 5-15 (inferred)), the pIC50 is 7.74.
In the case of `CC[C@H](C)[C@@H]1NC(=O)[C@H](CC(=O)O)NC(=O)[C@@H](NC(=O)[C@H](CC(N)=O)NC(=O)[C@@H]2CCCN2C(=O)[C@H](CCC(=O)O)NC(=O)[C@@H](NC(C)=O)C(C)C)CSSC[C@@H](C(=O)N[C@@H](Cc2ccccc2)C(=O)N[C@@H](CCC(=O)O)C(=O)N[C@@H](CCCNC(=N)N)C(=O)N[C@@H](CC(C)C)C(=O)N[C@@H](Cc2ccc(O)cc2)C(=O)NCC(=O)N2CCC[C@H]2C(=O)N[C@@H](Cc2c[nH]c3ccccc23)C(N)=O)NC(=O)[C@H](CCC(=O)O)NC(=O)[C@H](Cc2c[nH]c3ccccc23)NC(=O)[C@H](C(C)C)NC(=O)[C@H](Cc2c[nH]c3ccccc23)NC(=O)[C@H](CCSC)NC(=O)[C@H](C(C)C)NC(=O)[C@H](Cc2c[nH]cn2)NC1=O` [Compound 66, VEPNCDIHVMWVWECFERLYGPW] (Ac-VEPNCDIHVMWVWECFERLYGPW-NH2; disulfide 5-15 (inferred)), the negative logarithm of the IC50 (pIC50) was 7.73.
As for `CC[C@H](C)[C@@H]1NC(=O)[C@H](CC(=O)O)NC(=O)[C@@H](NC(=O)[C@H](CC(N)=O)NC(=O)[C@@H]2CCCN2C(=O)[C@H](CCC(=O)O)NC(=O)[C@@H](NC(C)=O)C(C)C)CSSC[C@@H](C(=O)N[C@@H](Cc2ccccc2)C(=O)N[C@@H](CCC(=O)O)C(=O)N[C@@H](CCCNC(=N)N)C(=O)N[C@@H](CC(C)C)C(=O)N[C@@H](CC(C)C)C(=O)N[C@@H](CCCCN)C(N)=O)NC(=O)[C@H](CCC(=O)O)NC(=O)[C@H](Cc2c[nH]c3ccccc23)NC(=O)[C@H](C(C)C)NC(=O)[C@H](Cc2c[nH]c3ccccc23)NC(=O)[C@H](CCSC)NC(=O)[C@H](C(C)C)NC(=O)[C@H](Cc2c[nH]cn2)NC1=O` [Compound 67, VEPNCDIHVMWVWECFERLLK] (Ac-VEPNCDIHVMWVWECFERLLK-NH2; disulfide 5-15 (inferred)), the figure is 8.00; as for `CC[C@H](C)[C@@H]1NC(=O)[C@H](CC(=O)O)NC(=O)[C@@H](NC(=O)[C@H](CC(N)=O)NC(=O)[C@@H]2CCCN2C(=O)[C@H](CCC(=O)O)NC(=O)[C@@H](NC(C)=O)C(C)C)CSSC[C@@H](C(=O)N[C@@H](Cc2ccccc2)C(=O)N[C@@H](CCC(=O)O)C(=O)N[C@@H](CCCNC(=N)N)C(=O)N[C@@H](CC(C)C)C(=O)N[C@@H](CC(C)C)C(=O)N[C@@H](CCCCNC(C)=O)C(N)=O)NC(=O)[C@H](CCC(=O)O)NC(=O)[C@H](Cc2c[nH]c3ccccc23)NC(=O)[C@H](C(C)C)NC(=O)[C@H](Cc2c[nH]c3ccccc23)NC(=O)[C@H](CCSC)NC(=O)[C@H](C(C)C)NC(=O)[C@H](Cc2c[nH]cn2)NC1=O` [Compound 68, VEPNCDIHVMWVWECFERLL-(Kac)] (Ac-VEPNCDIHVMWVWECFERLLK(Ac)-NH2; disulfide 5-15 (inferred)), 8.00; as for `CC[C@H](C)[C@@H]1NC(=O)[C@H](CC(=O)O)NC(=O)[C@@H](NC(=O)[C@H](CC(N)=O)NC(=O)[C@@H]2CCCN2C(=O)[C@H](CCC(=O)O)NC(=O)[C@@H](NC(C)=O)C(C)C)CSSC[C@@H](C(=O)N[C@@H](Cc2ccccc2)C(=O)N[C@@H](CCC(=O)O)C(=O)N[C@@H](CCCNC(=N)N)C(=O)N[C@@H](CC(C)C)C(=O)N[C@@H](Cc2ccc(O)cc2)C(=O)NCC(=O)N[C@@H](CCC(=O)O)C(=O)N[C@@H](Cc2ccccc2)C(N)=O)NC(=O)[C@H](CCC(=O)O)NC(=O)[C@H](Cc2c[nH]c3ccccc23)NC(=O)[C@H](C(C)C)NC(=O)[C@H](Cc2c[nH]c3ccccc23)NC(=O)[C@H](CCSC)NC(=O)[C@H](C(C)C)NC(=O)[C@H](Cc2c[nH]cn2)NC1=O` [Compound 70, VEPNCDIHVMWVWECFERLYGEF] (Ac-VEPNCDIHVMWVWECFERLYGEF-NH2; disulfide 5-15 (inferred)), 8.03.
Turning to `CC[C@H](C)[C@@H]1NC(=O)[C@H](CC(=O)O)NC(=O)[C@@H](NC(=O)[C@H](CC(N)=O)NC(=O)[C@@H]2CCCN2C(=O)[C@H](CCC(=O)O)NC(=O)[C@@H](NC(C)=O)C(C)C)CSSC[C@@H](C(=O)N[C@@H](Cc2ccccc2)C(=O)N[C@@H](CCC(=O)O)C(=O)N[C@@H](CCCNC(=N)N)C(=O)N[C@@H](CC(C)C)C(=O)N[C@@H](Cc2ccc(O)cc2)C(=O)NCC(=O)N[C@@H](CC(C)C)C(=O)N[C@@H](CO)C(N)=O)NC(=O)[C@H](CCC(=O)O)NC(=O)[C@H](Cc2c[nH]c3ccccc23)NC(=O)[C@H](C(C)C)NC(=O)[C@H](Cc2c[nH]c3ccccc23)NC(=O)[C@H](CCSC)NC(=O)[C@H](C(C)C)NC(=O)[C@H](Cc2c[nH]cn2)NC1=O` [Compound 71, VEPNCDIHVMWVWECFERLYGLS] (Ac-VEPNCDIHVMWVWECFERLYGLS-NH2; disulfide 5-15 (inferred)), the pIC50 was 8.27.
Consider `CC[C@H](C)[C@@H]1NC(=O)[C@H](CC(=O)O)NC(=O)[C@@H](NC(=O)[C@H](CC(N)=O)NC(=O)[C@@H]2CCCN2C(=O)[C@H](CCC(=O)O)NC(=O)[C@@H](NC(C)=O)C(C)C)CSSC[C@@H](C(=O)N[C@@H](Cc2ccccc2)C(=O)N[C@@H](CCC(=O)O)C(=O)N[C@@H](CCCNC(=N)N)C(=O)N[C@@H](CC(C)C)C(=O)N[C@@H](Cc2ccc(O)cc2)C(=O)NCC(=O)N[C@@H](CC(C)C)C(N)=O)NC(=O)[C@H](CCC(=O)O)NC(=O)[C@H](Cc2c[nH]c3ccccc23)NC(=O)[C@H](C(C)C)NC(=O)[C@H](Cc2c[nH]c3ccccc23)NC(=O)[C@H](CCSC)NC(=O)[C@H](C(C)C)NC(=O)[C@H](Cc2c[nH]cn2)NC1=O` [Compound 72, VEPNCDIHVMWVWECFERLYGL] (Ac-VEPNCDIHVMWVWECFERLYGL-NH2; disulfide 5-15 (inferred)), for which the pIC50 is 8.32.
In the case of `CC[C@H](C)[C@@H]1NC(=O)[C@H](CC(=O)O)NC(=O)[C@@H](NC(=O)[C@H](CC(N)=O)NC(=O)[C@@H]2CCCN2C(=O)[C@H](CCC(=O)O)NC(=O)[C@@H](NC(C)=O)C(C)C)CSSC[C@@H](C(=O)N[C@@H](Cc2ccccc2)C(=O)N[C@@H](CCC(=O)O)C(=O)N[C@@H](CCCNC(=N)N)C(=O)N[C@@H](CC(C)C)C(=O)N[C@@H](Cc2ccc(O)cc2)C(=O)NCC(=O)N[C@H](C(=O)N[C@@H](CCC(N)=O)C(N)=O)C(C)C)NC(=O)[C@H](CCC(=O)O)NC(=O)[C@H](Cc2c[nH]c3ccccc23)NC(=O)[C@H](C(C)C)NC(=O)[C@H](Cc2c[nH]c3ccccc23)NC(=O)[C@H](CCSC)NC(=O)[C@H](C(C)C)NC(=O)[C@H](Cc2c[nH]cn2)NC1=O` [Compound 74, VEPNCDIHVMWVWECFERLYGVQ] (Ac-VEPNCDIHVMWVWECFERLYGVQ-NH2; disulfide 5-15 (inferred)) it was 8.40; in that of `CC[C@H](C)[C@@H]1NC(=O)[C@H](CC(=O)O)NC(=O)[C@@H](NC(=O)[C@H](CC(N)=O)NC(=O)[C@@H]2CCCN2C(=O)[C@H](CCC(=O)O)NC(=O)[C@@H](NC(C)=O)C(C)C)CSSC[C@@H](C(=O)N[C@@H](Cc2ccccc2)C(=O)N[C@@H](CCC(=O)O)C(=O)N[C@@H](CCCNC(=N)N)C(=O)N[C@@H](CC(C)C)C(=O)N[C@@H](Cc2ccc(O)cc2)C(=O)NCC(=O)N[C@@H](CC(C)C)C(=O)N[C@@H](CCC(=O)O)C(N)=O)NC(=O)[C@H](CCC(=O)O)NC(=O)[C@H](Cc2c[nH]c3ccccc23)NC(=O)[C@H](C(C)C)NC(=O)[C@H](Cc2c[nH]c3ccccc23)NC(=O)[C@H](CCSC)NC(=O)[C@H](C(C)C)NC(=O)[C@H](Cc2c[nH]cn2)NC1=O` [Compound 75, VEPNCDIHVMWVWECFERLYGLE] (Ac-VEPNCDIHVMWVWECFERLYGLE-NH2; disulfide 5-15 (inferred)), 8.52.
In the case of `CC[C@H](C)[C@@H]1NC(=O)[C@H](CC(=O)O)NC(=O)[C@@H](NC(=O)[C@H](CC(N)=O)NC(=O)[C@@H]2CCCN2C(=O)[C@H](CCC(=O)O)NC(=O)[C@@H](NC(C)=O)C(C)C)CSSC[C@@H](C(=O)N[C@@H](Cc2ccccc2)C(=O)N[C@@H](CCC(=O)O)C(=O)N[C@@H](CCCNC(=N)N)C(=O)N[C@@H](CC(C)C)C(=O)N[C@@H](Cc2ccc(O)cc2)C(=O)NCC(=O)N2CCC[C@H]2C(=O)N[C@@H](CC(C)C)C(N)=O)NC(=O)[C@H](CCC(=O)O)NC(=O)[C@H](Cc2c[nH]c3ccccc23)NC(=O)[C@H](C(C)C)NC(=O)[C@H](Cc2c[nH]c3ccccc23)NC(=O)[C@H](CCSC)NC(=O)[C@H](C(C)C)NC(=O)[C@H](Cc2c[nH]cn2)NC1=O` [Compound 76, VEPNCDIHVMWVWECFERLYGPL] (Ac-VEPNCDIHVMWVWECFERLYGPL-NH2; disulfide 5-15 (inferred)) it was 8.64.
